A value given as a limit tells only on which side of the number the result lay.

Human Factor D, sequence (P00746 26-253): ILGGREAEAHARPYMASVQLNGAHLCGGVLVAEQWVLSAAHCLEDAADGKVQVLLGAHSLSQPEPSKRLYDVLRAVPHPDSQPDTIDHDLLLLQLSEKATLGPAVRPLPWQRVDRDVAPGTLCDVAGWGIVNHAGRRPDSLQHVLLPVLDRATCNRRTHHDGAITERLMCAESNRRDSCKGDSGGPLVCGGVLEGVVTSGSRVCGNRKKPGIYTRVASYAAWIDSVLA

The first assay addresses Human Factor D (Homo sapiens (Human), UniProt P00746). The assay is described as follows: Human Factor D Assay. Format: biochemical. To be noted: Factor D inhibition, assay of Example 10; read-out: IC5 (Stars). In short, it runs like this: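 Thioester substrate Z-L-Lys-SBz (100 μM) with Ellman's reagent DTNB (100 μM) reports activity of 80 nM human serum-derived enzyme, kinetically at 405 nm over 30 min. Compound preincubated 5 min, room temperature, pH 7.5 Tris/1 M NaCl; IC50 by nonlinear fit of rates.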
For `CSCc1cc(F)c(Br)nc1NC(=O)[C@@H]1C[C@@]2(C)C[C@H]2N1C(=O)Cn1nc(C(C)=O)c2cc(-c3cnc(C)nc3)ccc21` [Compound 438, (1R,5R)-2-(2-(3-Acetyl-5-(2-methylpyrimidin-5-yl)-1H-indazol-1-yl)acetyl)-N-(6-bromo-5-fluoro-3-((methylthio)methyl)pyridin-2-yl)-5-methyl-2-azabicyclo[3.1.0]hexane-3-carboxamide], the IC50 was less than 1 µM.

Turning to `CC(=O)c1nn(CC(=O)N2C[C@H](F)C[C@H]2C(=O)Nc2cccc(I)n2)c2ccc(-c3cnc(C)nc3)cc12` [Compound 439, (2S,4R)-1-(2-(3-acetyl-5-(2-methylpyrimidin-5-yl)-1H-indazol-1-yl)acetyl)-4-fluoro-N-(6-iodopyridin-2-yl)pyrrolidine-2-carboxamide], the IC50 is less than 1 µM.

Consider `CC(=O)c1nn(CC(=O)N2C[C@H](F)C[C@H]2C(=O)Nc2ccccn2)c2ccc(-c3cnc(C)nc3)cc12` [Compound 440, (2S,4R)-1-(2-(3-acetyl-5-(2-methylpyrimidin-5-yl)-1H-indazol-1-yl)acetyl)-4-fluoro-N-(pyridin-2-yl)pyrrolidine-2-carboxamide], for which the IC50 is less than 1 µM.

Consider `CC(=O)c1nn(CC(=O)N2[C@H](C(=O)Nc3nc(Br)ccc3C)C[C@@]3(CNc4ccn(CC(F)(F)F)n4)C[C@@H]23)c2c(C)cc(-c3cnc(C)nc3)cc12` [Compound 441, (1R,3S,5R)-2-(2-(3-acetyl-7-methyl-5-(2-methylpyrimidin-5-yl)-1H-indazol-1-yl)acetyl)-N-(6-bromo-3-methylpyridin-2-yl)-5-(((1-(2,2,2-trifluoroethyl)-1H-pyrazol-3-yl)amino)methyl)-2-azabicyclo[3.1.0]hexane-3-carboxamide], for which the IC50 is less than 1 µM.

As to `Cc1ncc(-c2ccc3c(cnn3CC(=O)N3C[C@H](F)C[C@H]3C(=O)Nc3cccc(Br)n3)c2)cn1` [Compound 444, (2S,4R)-N-(6-bromopyridin-2-yl)-4-fluoro-1-(2-(5-(2-methylpyrimidin-5-yl)-1H-indazol-1-yl)acetyl)pyrrolidine-2-carboxamide], the IC50 lay within 1 to 10 µM.

`CCc1nn(CC(=O)N2C[C@H](F)C[C@H]2C(=O)Nc2cccc(Br)n2)c2ccc(-c3cnc(C)nc3)cc12` [Compound 445, (2S,4R)-N-(6-bromopyridin-2-yl)-1-(2-(3-ethyl-5-(2-methylpyrimidin-5-yl)-1H-indazol-1-yl)acetyl)-4-fluoropyrrolidine-2-carboxamide]: the IC50 lay within 1 to 10 µM.

For `CC(=O)c1nn(CC(=O)N2C[C@H](F)C[C@H]2C(=O)N(C)c2cccc(Br)n2)c2ccc(-c3cnc(C)nc3)cc12` [Compound 446, (2S,4R)-1-(2-(3-acetyl-5-(2-methylpyrimidin-5-yl)-1H-indazol-1-yl)acetyl)-N-(6-bromopyridin-2-yl)-4-fluoro-N-methylpyrrolidine-2-carboxamide], the IC50 was greater than 10 µM.

`CC(=O)c1nn(CC(=O)N2[C@H](C(=O)Nc3cncc(Br)n3)C[C@@]3(Cc4nc(C)no4)C[C@@H]23)c2c(C)cc(-c3cnc(C)nc3)cc12` [Compound 447, (1R,3S,5R)-2-(2-(3-acetyl-7-methyl-5-(2-methylpyrimidin-5-yl)-1H-indazol-1-yl)acetyl)-N-(6-bromopyrazin-2-yl)-5-((3-methyl-1,2,4-oxadiazol-5-yl)methyl)-2-azabicyclo[3.1.0]hexane-3-carboxamide]: the IC50 is less than 1 µM.

Regarding `CC(=O)c1cn(CC(=O)N2[C@H](C(=O)Nc3nc(OC(F)(F)F)ccc3C)C[C@@]3(C)C[C@@H]23)c2c(C)cc(-c3cnc(C)nc3)cc12` [Compound 448, (1R,3S,5R)-2-(2-(3-acetyl-7-methyl-5-(2-methylpyrimidin-5-yl)-1H-indo1-1-yl)acetyl)-5-methyl-N-(3-methyl-6-(trifluoromethoxy)pyridin-2-yl)-2-azabicyclo[3.1.0]hexane-3-carboxamide], the IC50 is less than 1 µM.

Regarding `CC(=O)c1nn(CC(=O)N2[C@H](C(=O)Nc3cccc(Oc4ccccn4)n3)C[C@@]3(C)C[C@@H]23)c2c(C)cc(-c3cnc(C)nc3)cc12` [Compound 449, (1R,3S,5R)-2-(2-(3-acetyl-7-methyl-5-(2-methylpyrimidin-5-yl)-1H-indazol-1-yl)acetyl)-5-methyl-N-(6-(pyridin-2-yloxy)pyridin-2-yl)-2-azabicyclo[3.1.0]hexane-3-carboxamide], the IC50 was less than 1 µM.

As for `CC(=O)c1nn(CC(=O)N2[C@H](C(=O)Nc3nc(-c4ccccn4)ccc3C)C[C@@]3(C)C[C@@H]23)c2ccc(-c3cnc(C)nc3)cc12` [Compound 450, (1R,3S,5R)-2-(2-(3-acetyl-5-(2-methylpyrimidin-5-yl)-1H-indazol-1-yl)acetyl)-5-methyl-N-(5-methyl-[2,2′-bipyridin]-6-yl)-2-azabicyclo[3.1.0]hexane-3-carboxamide], the IC50 lay within 1 to 10 µM.

`CC(=O)c1nn(CC(=O)N2[C@H](C(=O)Nc3cccc(-n4ccccc4=O)n3)C[C@@]3(C)C[C@@H]23)c2c(C)cc(-c3cnc(C)nc3)cc12` [Compound 451, (1R,3S,5R)-2-(2-(3-acetyl-7-methyl-5-(2-methylpyrimidin-5-yl)-1H-indazol-1-yl)acetyl)-5-methyl-N-(2-oxo-2H-[1,2′-bipyridin]-6′-yl)-2-azabicyclo[3.1.0]hexane-3-carboxamide]: the IC50 was less than 1 µM.

As to `CC(=O)c1nn(CC(=O)N2[C@H](C(=O)Nc3nc(Br)ccc3C)C[C@@]3(C)C[C@@H]23)c2ccc(-c3ccncc3)cc12` [Compound 452, (1R,3S,5R)-2-(2-(3-acetyl-5-(pyridin-4-yl)-1H-indazol-1-yl)acetyl)-N-(6-bromo-3-methylpyridin-2-yl)-5-methyl-2-azabicyclo[3.1.0]hexane-3-carboxamide], the IC50 was less than 1 µM.

For `CC(=O)c1nn(CC(=O)N2[C@H](C(=O)Nc3nc(Br)ccc3C)C[C@@]3(C)C[C@@H]23)c2ccc(-c3ccc(C)cn3)cc12` [Compound 453, (1R,3S,5R)-2-(2-(3-acetyl-5-(5-methylpyridin-2-yl)-1H-indazol-1-yl)acetyl)-N-(6-bromo-3-methylpyridin-2-yl)-5-methyl-2-azabicyclo[3.1.0]hexane-3-carboxamide], the IC50 was less than 1 µM.

For the molecule `CC(=O)c1nn(CC(=O)N2[C@H](C(=O)Nc3cc(C)cc(Br)n3)C[C@@]3(C)C[C@@H]23)c2c(C)cc(-c3cnc(C)nc3)cc12` [Compound 456, (1R,3S,5R)-2-(2-(3-acetyl-7-methyl-5-(2-methylpyrimidin-5-yl)-1H-indazol-1-yl)acetyl)-N-(6-bromo-4-methylpyridin-2-yl)-5-methyl-2-azabicyclo[3.1.0]hexane-3-carboxamide], the IC50 was less than 1 µM.

`CC(=O)c1cn(CC(=O)N2[C@H](C(=O)Nc3nc(Br)c(F)cc3C)C[C@@]3(C)C[C@@H]23)c2ccc(-c3cnc(C)nc3)cc12` [Compound 457, (1R,3S,5R)-2-(2-(3-acetyl-5-(2-methylpyrimidin-5-yl)-1H-indol-1-yl)acetyl)-N-(6-bromo-5-fluoro-3-methylpyridin-2-yl)-5 methyl-2-azabicyclo[3.1.0]hexane-3-carboxamide]: the IC50 is less than 1 µM.

For the molecule `CC(=O)c1nn(CC(=O)N2[C@H](C(=O)N[C@@H](CC(C)C)C(=O)O)C[C@@]3(C)C[C@@H]23)c2c(C)cc(-c3cnc(C)nc3)cc12` [Compound 458, ((1R,3S,5R)-2-(2-(3-acetyl-7-methyl-5-(2-methylpyrimidin-5-yl)-1H-indazol-1-yl)acetyl)-5-methyl-2-azabicyclo[3.1.0]hexane-3-carbonyl)-L-leucine], the IC50 is less than 1 µM.

As for `CC(=O)c1cn(CC(=O)N2[C@H](C(=O)Nc3nc(C(F)(F)F)ccc3C)C[C@@]3(C)C[C@@H]23)c2c(C)cc(-c3cnc(C)nc3)cc12` [Compound 459, (1R,3S,5R)-2-(2-(3-acetyl-7-methyl-5-(2-methylpyrimidin-5-yl)-1H-indol-1-yl)acetyl)-5-methyl-N-(3-methyl-6-(trifluoromethyl)pyridin-2-yl)-2-azabicyclo[3.1.0]hexane-3-carboxamide], the IC50 was less than 1 µM.

Still in this assay, the particulars now being: Table 8; Factor D 80 nM, substrate Z-L-Lys-SBz; read-out: IC50.
Regarding `CC(=O)c1nn(CC(=O)N2[C@H](C(=O)Nc3nc(Br)ccc3C)C[C@@]3(CNC(=O)COCCOCCNC(=O)COCCOCCNC(=O)CC[C@H](NC(=O)CCCCCCCCCCCCCCCCC(=O)O)C(=O)O)C[C@@H]23)c2cnc(-c3cnc(C)nc3)cc12` [Compound 442, (S)-1-((1R,3S,5R)-2-(2-(3-acetyl-5-(2-methylpyrimidin-5-yl)-1H-pyrazolo[3,4-c]pyridin-1-yl)acetyl)-3-((6-bromo-3-methylpyridin-2-yl)carbamoyl)-2-azabicyclo[3.1.0]hexan-5-yl)-24-carboxy-3,12,21,26-tetraoxo-5,8,14,17-tetraoxa-2,11,20,25-tetraazatritetracontan-43-oic acid], the IC50 is less than 1 µM.

Consider `CCCCCCCCCCCCCCCC(=O)NCCCC[C@H](NC(=O)[C@H](CCC(=O)O)NC(=O)[C@H](Cc1ccc(O)cc1)NC(=O)[C@H](CCC(=O)O)NC(C)=O)C(=O)N[C@@H](CCC(=O)O)C(=O)N[C@@H](Cc1ccc(O)cc1)C(=O)N[C@@H](CCC(=O)O)C(=O)NC[C@@]12C[C@@H](C(=O)Nc3nc(Br)ccc3C)N(C(=O)Cn3nc(C(C)=O)c4cc(-c5cnc(C)nc5)cc(C)c43)[C@@H]1C2` [Compound 443, (4S,7S,10S,13S,16S,19S,22S)-22-acetamido-4-((((1R,3S,5R)-2-(2-(3-acetyl-7-methyl-5-(2-methylpyrimidin-5-yl)-1H-indazol-1-yl)acetyl)-3-((6-bromo-3-methylpyridin-2-yl)carbamoyl)-2-azabicyclo[3.1.0]hexan-5-yl)methyl)carbamoyl)-10,16-bis(2-carboxyethyl)-7,19-bis(4-hydroxybenzyl)-6,9,12,15,18,21-hexaoxo-13-(4-palmitamidobutyl)-5,8,11,14,17,20-hexaazapentacosanedioic acid], for which the IC50 was in the range of 1 to 10 µM.
